# In US20180251431A1 (VERTEX PHARMACEUTICALS INCORPORATED, priority 2016, published 2018):
# Tested on: WT mice
# Test: Reduction of blood C26:0 LPC in vivo in wild-type mice
# Parameters: species or system mouse
# Settings: blood (DBS), plateau between the 2 mg/kg and 16 mg/kg doses, PO QD 28 days
# Protocol: A LC-MS/MS method of analyzing Lysophosphatidylcholine (LPC) in whole blood (dried blood spot card, DBS) and brain tissue samples was developed for measuring the abundance of saturated C16, C18, C20, C22, C24 and C26 LPC in DBS and brain samples. Whole blood was collected with Whatman DMPK-C DBS card at an approximate volume of 20 μL at each time point. Brain tissue was collected at the end point of the study. Samples were prepared and LC-MS/MS analysis was performed as described below.
# For DBS bioanalysis, the DBS card was punched at 3 mm in diameter using a semi-automated DBS card puncher. To each punched spot 200 μL of pure methanol was added. The vial was vortexed at low speed for 20 minutes and centrifuged at 4000 rpm for 20 minutes. The clear supernatant was injected onto LC-MS/MS for analysis. […]
# The supernatant obtained from each sample was injected into a LC-MS/MS system (Agilent Technologies, Santa Clara, Calif. and Applied Biosystems, Framingham, Mass.) for analysis. […] LPCs were detected by an AB Sciex API-6500 triple quadrupole MS with electrospray ionization in the mode of multiple reaction monitoring. Ions of Q1 were monitored at m/z of 496.6, 524.6, 552.6, 580.6, 608.6 and 636.6 for LPC 16:0, LPC 18:0, LPC 20:0, LPC 22:0, LPC 24:0 and LPC 26:0, respectively. […] C16:0 LPC levels were expressed as a concentration. […]
structure (smiles),measurement,value
"O=C(Nc1ccn(-c2ccnc(F)c2)n1)C1(c2ccccc2F)CC1 [Compound 87, 1-(2-fluorophenyl)-N-[1-(2-fluoro-4-pyridyl)pyrazol-3-yl]cyclopropanecarboxamide]",reduction in C26:0 LPC levels (maximal effect plateau),~65%
